Assay results: publication PMC7539012, “Hyperphosphorylated tau aggregation and cytotoxicity modulators screen identified prescription drugs linked to Alzheimer's disease and cognitive functions” (Scientific Reports, 2020)
Structures can show the parent of a compound that is named as a salt.

System: T1, 1N4R p-tau
T1 construct: made in house; host or cells: E. coli (PIMAX system)
Test: p-tau aggregation modulator screen of 1280-compound library (ThS fluorescence net change over 16 h);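 on ThS net change: 30 µM compound with 6 µM p-tau over 16 h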
Assay type: biochemical
Parameters: key to PTAI>2SD: *: PTAI>2SD; key to PTAI>3SD: *: PTAI>3SD
Conditions: not given

In order of rising ThS net change:
1. CN1CCc2cccc3c2[C@H]1Cc1ccc(O)c(O)c1-3.CN1CCc2cccc3c2[C@H]1Cc1ccc(O)c(O)c1-3.Cl.Cl.O  233
2. COc1cc(NC(C)CCCN)c2ncccc2c1 (stereo not drawn) [Primaquine diphosphate]  250
3. O=C1c2c(O)ccc(O)c2C(=O)c2c(NCCNCCO)ccc(NCCNCCO)c21 [Mitoxantrone dihydrochloride]  328
4. CC[N+]1(C)CCCC(OC(=O)C(O)(c2ccccc2)c2ccccc2)C1 (stereo not drawn) [Pipenzolate bromide]  395

Same assay, conditions: 1280-compound library screen; ThS fluorescence net change over 16 h

In order of falling ThS net change:
1. NCCc1c[nH]c2ccc(O)cc12 [Serotonin hydrochloride]  412
2. Nc1c2ccccc2nc2ccccc12 [Aminacrine]  408
3. Cc1nccn1CC1CCc2c(c3ccccc3n2C)C1=O.Cl (stereo not drawn) [Ondansetron Hydrochloride]  407
4. CCCNC(C)(C)COC(=O)c1ccccc1 [Meprylcaine hydrochloride]  405
5. COc1cc(C(=O)N2CCOCC2)cc(OC)c1OC [Trimetozine]  404
6. O=C(N/N=C/c1ccc([N+](=O)[O-])o1)c1ccc(O)cc1 [Nifuroxazide]  402
7. CC(C)[C@H](N)C(=O)OCCOCn1cnc2c(=O)[nH]c(N)nc21 [Valacyclovir hydrochloride]  396
8. CCCCC1(COC(=O)CCC(=O)O)C(=O)N(c2ccccc2)N(c2ccccc2)C1=O [Suxibuzone]  392
9. CO[C@@]1(NC(=O)C2SC(=C(C(N)=O)C(=O)O)S2)C(=O)N2C(C(=O)O)=C(CSc3nnnn3C)CS[C@@H]21 (stereo partly drawn) [Cefotetan]  392
10. Nc1ccc(S(=O)(=O)Nc2nccs2)cc1 [Sulfathiazole]  389
11. CCN(CC)CCOC(=O)C(c1ccccc1)C1CCCCC1 (stereo not drawn) [Drofenine hydrochloride]  388
12. O=c1[nH]c(=O)n([C@H]2C[C@H](O)[C@@H](CO)O2)cc1F [Floxuridine]  388
13. CC1(C)S[C@@H]2[C@H](NC(=O)[C@H](N)c3ccc(O)cc3)C(=O)N2[C@H]1C(=O)O [Amoxicillin]  388
14. C[C@H]1[C@H](NC(=O)/C(=N\OC(C)(C)C(=O)O)c2csc(N)n2)C(=O)N1S(=O)(=O)O [Aztreonam]  386
15. CC(=O)[C@@]1(O)CC[C@H]2[C@@H]3C[C@H](C)C4=CC(=O)C=C[C@]4(C)[C@@]3(F)[C@@H](O)C[C@@]21C [Fluorometholone]  383
16. Cn1c(=O)c2c(ncn2CC(O)CO)n(C)c1=O (stereo not drawn) [Diprophylline]  381

Same assay, conditions: 1280-compound library screen; […]

In order of rising ThS net change:
1. CC[C@@H]1C(=O)OC[C@@H]1Cc1cncn1C [Pilocarpine nitrate]  378
2. NC(=O)C(c1ccccc1)(c1ccccc1)[C@@H]1CCN(CCc2ccc3c(c2)CCO3)C1 [Darifenacin hydrobromide]  384
3. CC(=O)[N-]S(=O)(=O)c1ccc(N)cc1.O.[Na+] [Sulfacetamide sodic hydrate]  393

Same assay, conditions: flag: p-tau aggregation inhibitor, ThS net change more than 2 SD from mean

In the case of `CCN(CC)CCNc1ccc(CO)c2sc3ccccc3c(=O)c12` [Hycanthone], the “PTAI>2SD” value is reported as “*”.

Same assay, conditions: flag: p-tau aggregation inhibitor, ThS net change more than 3 SD from mean

`O=C1CN2Cc3c(ccc(Cl)c3Cl)N=C2N1` [Anagrelide] was tested, and the “PTAI>3SD” value was “*”.

Same assay, conditions: library screen, ThS fluorescence net change over 16 h with p-tau

In order of rising ThS net change:
1. O=C1CN2Cc3c(ccc(Cl)c3Cl)N=C2N1 [Anagrelide]  22
2. CCN(CC)CCNc1ccc(CO)c2sc3ccccc3c(=O)c12 [Hycanthone]  171
3. O=C1NCN(c2ccccc2)C12CCN(CCCC(c1ccc(F)cc1)c1ccc(F)cc1)CC2 [Fluspirilen]  258

Same assay, conditions: p-tau aggregation modulator screen of 1280-compound library; ThS fluorescence net change

In order of rising ThS net change:
1. CCN(CC)CCNC(C(=O)OCCC(C)C)c1ccccc1.Cl.Cl (stereo not drawn) [Camylofine chlorhydrate]  342
2. Nc1ccc(C(=O)NCC(=O)O)cc1 [Aminohippuric acid]  344
3. CCCCC(CC)CN1CN(CC(CC)CCCC)CC(C)(N)C1 (stereo not drawn) [Hexetidine]  353
4. CC(C)(C(=O)c1cccnc1)c1cccnc1 [Metyrapone]  353
5. CC(C)(O/N=C(\C(=O)N[C@@H]1C(=O)N2C(C(=O)[O-])=C(C[n+]3ccccc3)CS[C@H]12)c1csc(N)n1)C(=O)O [Ceftazidime pentahydrate]  358
6. [H]/N=C(/N)NS(=O)(=O)c1ccc(N)cc1 [Sulfaguanidine]  364
7. CN1CCC(=C2c3ccccc3CC(=O)c3sccc32)CC1 [Ketotifen fumarate]  366
8. CC(=O)OCC(=O)[C@@]1(O)CC[C@H]2[C@@H]3CCC4=CC(=O)CC[C@]4(C)[C@H]3[C@@H](O)C[C@@]21C [Cortisol acetate]  369
9. Cc1onc(-c2ccccc2)c1C(=O)N[C@@H]1C(=O)N2[C@@H]1SC(C)(C)[C@@H]2C(=O)[O-].[Na+] [Oxacillin sodium]  373
10. NC[C@H]1O[C@H](O[C@H]2[C@H](O)[C@@H](O[C@H]3O[C@H](CO)[C@@H](O)[C@H](N)[C@H]3O)[C@H](N)C[C@@H]2N)[C@H](O)[C@@H](O)[C@@H]1O [Kanamycin A sulfate]  374

Same assay, conditions: p-tau aggregation modulator screen of 1280-compound library; […]

In order of rising ThS net change:
1. C[C@]12COC(=O)C[C@@H]1CC[C@@H]1[C@@H]2CC[C@@]2(C)[C@H]1CC[C@]2(C)O [Oxandrolone]  338
2. C1CCc2nnnn2CC1 [Pentylenetetrazole]  365
3. CCN(C(C)=O)c1cccc(-c2ccnc3c(C#N)cnn23)c1 [Zaleplon]  368

Same assay, conditions: p-tau aggregation modulator screen of the compound library, ThS fluorescence net change

In order of falling ThS net change:
1. CCOC(=O)[C@H](CCc1ccccc1)N[C@@H](C)C(=O)N1CCC[C@H]1C(=O)O [Enalapril maleate]  2088
2. COc1ncnc(NS(=O)(=O)c2ccc(N)cc2)c1OC [Sulfadoxine]  513
3. CC(C)c1c(C(=O)Nc2ccccc2)c(-c2ccccc2)c(-c2ccc(F)cc2)n1CC[C@@H](O)C[C@@H](O)CC(=O)O [Atorvastatin]  488
4. CCOc1cc(CC(=O)N[C@@H](CC(C)C)c2ccccc2N2CCCCC2)ccc1C(=O)O [Repaglinide]  481
5. COc1ccc(-c2ccc3cc(C(=O)O)ccc3c2)cc1C12CC3CC(CC(C3)C1)C2 [Adapalene]  477
6. C[C@]12CCC(=O)C=C1C=C[C@@H]1[C@@H]2CC[C@@]2(C)[C@H]1CC[C@@]21CCC(=O)O1 [Canrenone]  462
7. CCC(C)(C)C(=O)O[C@H]1C[C@@H](C)C=C2C=C[C@H](C)[C@H](CC[C@@H]3C[C@@H](O)CC(=O)O3)[C@H]21 [Simvastatin]  458
8. Cn1c([N+](=O)[O-])cnc1COC(N)=O [Ronidazole]  445
9. C[C@]12CC[C@H](O)C[C@H]1CC[C@@H]1[C@@H]2C[C@@H](O)[C@]2(C)[C@@H](C3=CC(=O)OC3)CC[C@]12O [Digoxigenin]  440
10. CC(=O)O[C@]1(C(C)=O)CC[C@H]2[C@@H]3C=C(Cl)C4=CC(=O)[C@@H]5C[C@@H]5[C@]4(C)[C@H]3CC[C@@]21C [Cyproterone acetate]  432
11. S=c1[nH]cnc2nc[nH]c12 [Mercaptopurine]  426
12. CC(=O)N[C@@H](CC(=O)N[C@@H](CCC(=O)O)C(=O)O)C(=O)O [Spaglumic acid]  425
13. CC(=O)N[C@@H](CS)C(=O)O [Acetylcysteine]  423
14. O=C(CCCCC(=O)Nc1c(I)cc(I)c(C(=O)O)c1I)Nc1c(I)cc(I)c(C(=O)O)c1I [Iodipamide]  421
15. COC(=O)[C@@H]1[C@H]2C[C@H]3c4[nH]c5ccccc5c4CCN3C[C@@H]2CC[C@@H]1O [Yohimbine hydrochloride]  418
16. N=C(N)NC(=O)Cc1c(Cl)cccc1Cl [Guanfacine hydrochloride]  417
